Reference: patent publication US4113774A, “N-(Dichloroacetyl) diamine compounds and process of preparing same” (Sterling Drug Inc., priority 1977, dated 1978)

Assays:
[1] = molecular target: liver acetaldehyde dehydrogenase; assay: Inhibition of liver acetaldehyde dehydrogenase (I50); format: biochemical; conditions: bovine liver enzyme, propionaldehyde substrate, NAD, pH 9.6, 26.0 °C, 15 minutes; read-out: I50 values (molar concentration for 50% inhibition) for inhibition of liver acetaldehyde dehydrogenase
Description: The specific activity of the partially purified enzyme preparation was 172 units per milligram of protein. The assay system contained 30μ moles of sodium pyrophosphate buffer with a final pH of 9.6, 135μ moles of propylene glycol to serve as a vehicle for the compound being tested, 0.5μ mole of propionaldehyde, 1μ mole of nicotinamide adenine dinucleotide and 120 units of enzyme to initiate the reaction in a total volume of 3.0 milliliters. The assay mixture was contained in 1 centimeter silica cuvettes. The reaction was followed by measuring the increase in optical density at 340 mμ with time on the Beckman du spectrophotometer which was equipped with dual thermospacers set to maintain the temperature of the cell compartment at 26.0 ± 0.1° C. by means of a circulating water bath (Haake Thermostat F, Berlin). Readings of optical density were taken each minute for 15 minutes. The optical density at 15 minutes corrected for optical density at zero time was used to calculate percent inhibition compared with controls which contained all constituents except the compound being tested. Fifty percent inhibition values (I50) were determined from first order reaction plots at multiple levels of the tested compound. Sodium pyrophosphate changes pH when diluted with the other reaction constitutents in water; so, this effect was compensated for to bring the final pH of the incubation mixture to 9.6.

aldehyde dehydrogenase = conditions: cited from earlier work; for effectiveness compared with disulfiram: evaluation said to considerably underestimate effectiveness
[2] = man and animals; cited from earlier work
[3] = test system: antispermatogenic activity; conditions: Coulston et al.; Surrey U.S. Pat. No. 3,143,566; cited from earlier work
[4] = test system: antispermatogenic activity; conditions: cited from earlier work
spermatogenesis = conditions: cited from earlier work
E. criceti = conditions: cited from earlier work

Compound | IC50 [1] [nM] | effectiveness compared with disulfiram (aldehyde dehydrogenase) | side effect [2] | other results
O=C(NCCCCCCCCNC(=O)C(Cl)Cl)c1ccc(Cl)cc1 [Example B-1, N-(dichloroacetyl)-N'-(4-chlorobenzoyl)-1,8-octanediamine] | 2700 |  |  | 
O=C(NCCCCCCCCNC(=O)C(Cl)Cl)c1ccc(Cl)c(Cl)c1 [Example B-2, N-(Dichloroacetyl)-N'-(3,4-dichlorobenzoyl)-1,8-octanediamine] | 820 |  |  | 
CCN(Cc1ccc(CN(CC)C(=O)C(Cl)Cl)cc1)C(=O)C(Cl)Cl [Win 13,099, N,N'-bis(dichloroacetyl)-N,N'-diethyl-1,4-bis(aminomethyl)benzene] |  | about as effective as disulfiram | a reaction to ethanol in man and animals | 
O=C(NCCCCCCCCNC(=O)C(Cl)Cl)C(Cl)Cl [Win 18,466, N,N'-Bis(dichloroacetyl)-1,8-octanediamine] |  | about as effective as disulfiram | a reaction to ethanol in man and animals | antispermatogenic activity [3]: highly antispermatogenically-active; antispermatogenic activity in rats [4]: to have antispermatogenic activity in rats; suppression of spermatogenesis in man (spermatogenesis): to suppress spermatogenesis in man; in vivo amebicidal activity against E. criceti in hamsters (E. criceti): not to have in vivo amebicidal activity; inhibitor of aldehyde dehydrogenase (aldehyde dehydrogenase): to be an inhibitor of aldehyde dehydrogenase
CCN(CC)C(=S)SSC(=S)N(CC)CC [disulfiram, bis(diethylthiocarbamoyl) disulfide] | 13000 |  |  | 
